Each compound was assayed against T1, GR (Homo sapiens, UniProt P04150) (assay: In Vitro GR Luciferase Reporter Assay (antagonist assay)). Details: CHO-K1-GR-MMTV-Luc reporter cells, 10 nM Dexamethasone, 18-24 hours.
T1 construct: expressed in transfected cells; host or cells: CHO-K1 (CHO-K1-GR-MMTV-Luc reporter cells)
T1 sequence (P04150 1-777): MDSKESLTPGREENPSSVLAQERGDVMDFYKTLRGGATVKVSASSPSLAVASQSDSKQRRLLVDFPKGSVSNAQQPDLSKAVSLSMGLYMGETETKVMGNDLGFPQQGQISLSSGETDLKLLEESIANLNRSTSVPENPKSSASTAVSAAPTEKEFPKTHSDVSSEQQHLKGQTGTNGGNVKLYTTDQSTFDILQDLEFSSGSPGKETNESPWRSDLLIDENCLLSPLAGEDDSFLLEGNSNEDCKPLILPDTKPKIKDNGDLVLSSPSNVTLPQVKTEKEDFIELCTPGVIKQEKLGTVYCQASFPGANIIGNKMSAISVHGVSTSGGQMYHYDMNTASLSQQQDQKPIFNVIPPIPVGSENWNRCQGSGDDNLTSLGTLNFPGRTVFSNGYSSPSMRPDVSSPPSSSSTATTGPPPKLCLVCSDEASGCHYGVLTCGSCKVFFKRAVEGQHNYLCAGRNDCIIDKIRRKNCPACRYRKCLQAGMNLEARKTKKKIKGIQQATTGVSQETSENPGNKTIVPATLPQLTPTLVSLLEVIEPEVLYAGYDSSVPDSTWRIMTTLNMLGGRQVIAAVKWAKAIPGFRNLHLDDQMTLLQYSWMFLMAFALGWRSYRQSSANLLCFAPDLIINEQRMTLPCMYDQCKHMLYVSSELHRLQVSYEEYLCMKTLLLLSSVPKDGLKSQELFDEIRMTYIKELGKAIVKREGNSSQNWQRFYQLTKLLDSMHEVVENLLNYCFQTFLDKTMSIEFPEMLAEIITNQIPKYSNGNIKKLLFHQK
Assay type: cell-based
Procedure: Example A: In Vitro GR Luciferase Reporter Assay
Cell Line: CHO-K1-GR-MMTV-Luc reporter cells
Culture Media: DMEM (with phenol red)+10% FBS
Assay Media: DMEM (without phenol red)+10% CSS
Culture CHO-K1-GR-MMTV-Luc reporter cells in T175 flasks in Culture Media at conditions less than 90% confluence.
Using Bravo (Agilent) liquid handler:
200× DMSO 1:3 serial dilutions of control and test compounds in 96-well non-sterile V bottom plate in DMSO, 12 points for each compound were prepared.
Prepared 5× compound serial dilutions: Add 97.5 μL/well of Assay Media into 96-well non-sterile V bottom plate then added 2.5 ul of 200× concentration of compounds and mix well.
Seeded cells for Antagonist Assay: 5200 CHO-K1-GR-MMTV-Luc reporter cells were seeded in Greiner #781080 flat clear bottom 384-well white TC plate in 20 ul of Assay Media containing 12.5 nM Dexamethasone (final concentration=10 nM).
Added compounds: 5 μl of 5× compounds were added to appropriate wells and followed with a quick spin (1000 rpm, 10 sec) to bring media and cells to the bottom of plate. The plates were covered with SealMate film to avoid evaporation and placed in 37° C. incubator for approximately 18-24 hours.
Read plates: Equilibrate appropriate amount of Promega OneGlo luciferase reagent to room temperature. Remove the plates from incubator and add 25 uL of OneGlo reagent/well by Bravo and read the plates on Tecan Spark plate reader within 15 minutes.
The ability of the compounds disclosed herein to inhibit GR activity was quantified and the respective IC50 value was determined. Table 1 provides the cellular IC50 values of compounds disclosed herein.

| IC50 | SMILES |
| --- | --- |
| ≤ 100 nM | Cn1ccc(S(=O)(=O)C(C)(C)[C@H]2CCC3=Cc4c(cnn4-c4ccc(F)cc4)C[C@]3(C(=O)c3cc(F)ccn3)C2)n1 [Example 8, ((4aR,6S)-1-(4-Fluorophenyl)-6-(2-((1-methyl-1H-pyrazol-3-yl)sulfonyl)propan-2-yl)-1,4,5,6,7,8-hexahydro-4aH-benzo[f]indazol-4a-yl)(4-fluoropyridin-2-yl)methanone] |
| ≤ 100 nM | O=C(c1cc(F)ccn1)[C@]12Cc3cnn(-c4ccc(F)cc4)c3C=C1CC[C@H](N(C1CC(F)(F)C1)S(=O)(=O)c1ccc(F)cc1)C2 [Example 23] |
| ≤ 100 nM | Cn1cnc(S(=O)(=O)[C@H]2CCC3=Cc4c(cnn4-c4ccc(F)cc4)C[C@]3(C(=O)c3ccc(C4CC4)cn3)C2)n1 [Example 7, (5-Cyclopropylpyridin-2-yl)((4aS,6S)-1-(4-fluorophenyl)-6-((1-methyl-1H-1,2,4-triazol-3-yl)sulfonyl)-1,4,5,6,7,8-hexahydro-4aH-benzo[f]indazol-4a-yl)methanone] |
| ≤ 100 nM | Cn1cnc(S(=O)(=O)[C@H]2CCC3=Cc4c(cnn4-c4ccc(F)cc4)C[C@]3(C(=O)c3ccc(F)cn3)C2)n1 [Example 91] |
| ≤ 100 nM | C[C@H]([C@H]1CCC2=Cc3c(cnn3-c3ccc(F)cc3)C[C@]2(C(=O)c2ccc(C(F)(F)F)cn2)C1)S(=O)(=O)c1cnn(C)c1 [Example 35] |
| ≤ 100 nM | C[C@H]([C@H]1CCC2=Cc3c(cnn3-c3ccc(F)cc3)C[C@]2(C(=O)c2ncc(C(F)(F)F)s2)C1)S(=O)(=O)c1cnn(C)c1 (single isomer, unassigned) [Example 9, ((4aR,6S)-1-(4-Fluorophenyl)-6-((R)-1-((1-methyl-1H-pyrazol-4-yl)sulfonyl)ethyl)-1,4,5,6,7,8-hexahydro-4aH-benzo[f]indazol-4a-yl)(5-(trifluoromethyl)thiazol-2-yl)methanone or ((4aR,6S)-1-(4-fluorophenyl)-6-((S)-1-((1-methyl-1H-pyrazol-4-yl)sulfonyl)ethyl)-1,4,5,6,7,8-hexahydro-4aH-benzo[f]indazol-4a-yl)(5-(trifluoromethyl)thiazol-2-yl)methanone] |
| ≤ 100 nM | Cn1cnc(S(=O)(=O)N(CC(F)(F)F)[C@H]2CCC3=Cc4c(cnn4-c4ccc(F)nc4)C[C@]3(C(=O)c3cc(F)ccn3)C2)n1 [Example 78] |
| ≤ 100 nM | Cn1cnc(S(=O)(=O)N(CC(F)F)[C@H]2CCC3=Cc4c(cnn4-c4ccc(F)cc4)C[C@]3(C(=O)c3cc(F)ccn3)C2)n1 [Example 30] |
| ≤ 100 nM | O=C(c1cc(Cl)ccn1)[C@]12Cc3cnn(-c4ccc(F)cc4)c3C=C1CC[C@H](N(CC(F)(F)F)S(=O)(=O)c1ccc(F)cc1)C2 [Example 53] |
| ≤ 100 nM | Cn1cnc(S(=O)(=O)[C@H]2CCC3=Cc4c(cnn4-c4ccc(F)cc4)C[C@]3(C(=O)c3cc4c(cn3)OCCO4)C2)n1 [Example 97] |
| ≤ 100 nM | CC(C)N([C@H]1CCC2=Cc3c(cnn3-c3ccc(F)nc3)C[C@]2(C(=O)c2cc(Cl)ccn2)C1)S(=O)(=O)c1ncn(C)n1 [Example 52] |
| ≤ 100 nM | CC(C)N([C@H]1CCC2=Cc3c(cnn3-c3ccc(F)cc3)C[C@]2(C(=O)c2cc(F)ccn2)C1)S(=O)(=O)c1ncn(C)n1 [Example 81] |
| ≤ 100 nM | CC(C)N([C@H]1CCC2=Cc3c(cnn3-c3ccc(F)cc3)C[C@]2(C(=O)c2cc(C(C)(C)C)ccn2)C1)S(=O)(=O)c1cnn(C)c1 [Example 64] |
| ≤ 100 nM | O=C(c1cc(F)ccn1)[C@]12Cc3cnn(-c4ccc(F)cc4)c3C=C1CC[C@H](N(C1CC(F)(F)C1)S(=O)(=O)c1cn[nH]c1)C2 [Example 99] |
| ≤ 100 nM | C[C@H]([C@H]1CCC2=Cc3c(cnn3-c3ccc(F)cc3)C[C@]2(C(=O)c2ncc(C(C)(C)C)s2)C1)S(=O)(=O)c1cnn(C)c1 [Example 59] |
| ≤ 100 nM | Cn1cc(S(=O)(=O)N(CCOC(F)(F)F)[C@H]2CCC3=Cc4c(cnn4-c4ccc(F)cc4)C[C@]3(C(=O)c3cc(C(F)(F)F)ccn3)C2)cn1 [Example 60] |
| > 1000 nM | Cn1cc(-n2ncc3c2C=C2CC[C@H](N(C4CC4)S(=O)(=O)c4ccc(F)cc4)C[C@@]2(C(=O)c2cc(C(F)(F)F)ccn2)C3)ccc1=O [Example 73] |
| ≤ 100 nM | Cn1cc(S(=O)(=O)N(C2CC2)[C@H]2CCC3=Cc4c(cnn4-c4ccc(F)nc4)C[C@]3(C(=O)c3ncc(C(F)(F)F)s3)C2)cn1 [Example 16] |
| ≤ 100 nM | CCn1cnc(S(=O)(=O)[C@H]2CCC3=Cc4c(cnn4-c4ccc(F)cc4)C[C@]3(C(=O)c3ccc(C(F)(F)F)cn3)C2)n1 [Example 93] |
| ≤ 100 nM | CC(C)N([C@H]1CCC2=Cc3c(cnn3-c3ccc(F)cc3)C[C@]2(C(=O)c2cc(F)ccn2)C1)S(=O)(=O)c1cn(C)cn1 [Example 87] |
| ≤ 100 nM | Cn1ccc(S(=O)(=O)N(C2CC2)[C@H]2CCC3=Cc4c(cnn4-c4ccc(F)cc4)C[C@]3(C(=O)c3cc(C(F)(F)F)ccn3)C2)c1 [Example 47] |
| ≤ 100 nM | Cn1cnc(S(=O)(=O)N(CC(F)(F)F)[C@H]2CCC3=Cc4c(cnn4-c4ccc(F)cc4)C[C@]3(C(=O)c3cc(Cl)ccn3)C2)n1 [Example 41] |
| ≤ 100 nM | CCN([C@H]1CCC2=Cc3c(cnn3-c3ccc(F)nc3)C[C@]2(C(=O)c2cc(C(F)(F)F)ccn2)C1)S(=O)(=O)c1ncn(C)n1 [Example 49] |
| ≤ 100 nM | Cn1cnc(S(=O)(=O)N([C@H]2CCOC2)[C@H]2CCC3=Cc4c(cnn4-c4ccc(F)cc4)C[C@]3(C(=O)c3cc(C(F)(F)F)ccn3)C2)n1 [Example 33] |
| ≤ 100 nM | Cn1cc(S(=O)(=O)C[C@H]2CCC3=Cc4c(cnn4-c4ccc(F)cc4)C[C@]3(C(=O)c3cc(F)ccn3)C2)cn1 [Example 15] |
| ≤ 100 nM | O=C(c1cc(Cl)ccn1)[C@]12Cc3cnn(-c4ccc(F)cc4)c3C=C1CC[C@H](N(C1CC(F)(F)C1)S(=O)(=O)c1ccc(F)cc1)C2 [Example 24] |
| ≤ 100 nM | C[C@H]([C@H]1CCC2=Cc3c(cnn3-c3ccc(F)cc3)C[C@]2(C(=O)c2cc(Cl)ccn2)C1)S(=O)(=O)c1ncn(C)n1 [Example 86] |

From patent US20220079924A1, “GLUCOCORTICOID RECEPTOR MODULATORS” (ORIC Pharmaceuticals, Inc., priority 2018, published 2022)
